Laboratory results published in publication PMC3033209 (Journal of applied microbiology, 2009).

Target: T1, β-glucosidase from L. brevis SK3 (Levilactobacillus brevis, UniProt Q03P52)
T1 sequence (Q03P52 1-751): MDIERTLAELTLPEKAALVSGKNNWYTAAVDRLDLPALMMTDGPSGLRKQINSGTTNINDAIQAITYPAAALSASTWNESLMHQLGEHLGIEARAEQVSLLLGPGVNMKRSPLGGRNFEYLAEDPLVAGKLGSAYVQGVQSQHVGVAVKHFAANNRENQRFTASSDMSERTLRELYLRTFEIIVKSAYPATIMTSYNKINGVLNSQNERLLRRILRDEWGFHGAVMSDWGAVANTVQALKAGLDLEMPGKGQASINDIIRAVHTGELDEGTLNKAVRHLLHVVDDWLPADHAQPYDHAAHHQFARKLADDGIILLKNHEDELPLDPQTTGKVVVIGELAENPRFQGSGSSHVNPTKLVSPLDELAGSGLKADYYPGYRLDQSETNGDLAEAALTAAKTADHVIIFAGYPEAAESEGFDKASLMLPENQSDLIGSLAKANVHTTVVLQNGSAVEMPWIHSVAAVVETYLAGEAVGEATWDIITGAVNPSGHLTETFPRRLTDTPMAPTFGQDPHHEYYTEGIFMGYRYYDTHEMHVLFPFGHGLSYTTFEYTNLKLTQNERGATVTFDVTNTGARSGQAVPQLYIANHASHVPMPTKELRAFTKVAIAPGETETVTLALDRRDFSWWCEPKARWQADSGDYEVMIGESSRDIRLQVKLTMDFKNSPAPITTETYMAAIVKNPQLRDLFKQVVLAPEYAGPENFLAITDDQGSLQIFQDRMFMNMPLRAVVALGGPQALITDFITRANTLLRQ
Experiment: standard glucosidase assay, p-nitrophenol at […] nm after stop
Assay type: biochemical
Conditions: inhibitor, 10 mM pNPβGlc, pH 5.5, 37 °C, 10 min

O=C(O)[C@H](O)[C@@H](O)[C@H](O)[C@H](O)CO [Gluconic acid]
Relative activity (%) (200000 µM): 17%

O=C1O[C@H](CO)[C@@H](O)[C@H](O)[C@H]1O [Glucono-δ-lactone]
Relative activity (%) (10000 µM): 14%

OC[C@H]1OC(O)[C@H](O)[C@@H](O)[C@@H]1O (stereo partly drawn) [Glucose]
Relative activity (%) (200000 µM): 59%
